Earlier results as cited in patent publication US20220280598A1, “COMPLEMENT INHIBITOR DOSING REGIMENS” (Apellis Pharmaceuticals, Inc., priority 2019, published 2022).
pIC50: −log10 of the molar value.

Assays:
[1] = system: complement activation (alternative pathway); settings: alternative pathway-mediated erythrocyte lysis assay (WO2004/026328); cited from earlier work
[2] = system: complement activation; settings: relative to compstatin amidated at the C-terminus; published data; cited from earlier work

Row | Compound | pIC50 [1] | Activity over compstatin [2] [× more]
1 | CC[C@H](C)[C@H](N)C(=O)N[C@H]1CSSC[C@@H](C(=O)N[C@H](C(N)=O)[C@@H](C)O)NC(=O)[C@H](CCCN=C(N)N)NC(=O)[C@H](Cc2cnc[nH]2)NC(=O)[C@H](Cc2cnc[nH]2)NC(=O)CNC(=O)[C@H](Cc2c[nH]c3ccccc23)NC(=O)[C@H](CC(=O)O)NC(=O)[C@H](CCC(N)=O)NC(=O)[C@H](C(C)C)NC(=O)[C@H](C(C)C)NC1=O [Compstatin, H-ICVVQDWGHHRCT-CONH2] | 4.92 | 
2 | Ac-ICVVQDWGHHRCT-CONH2 [Ac-compstatin] |  | 3
